Data from ChEMBL document CHEMBL4364250, “Improvement of Asparagine Ethylenediamines as Anti-malarial Plasmodium-Selective Proteasome Inhibitors” (J Med Chem, 2019).
Blank lines part the entries; values can stand above or below the compound they belong to. The source made the active and inactive calls. The rule behind the calls is not given here.

Tests used:
[1] = test system: HepG2; test: Cytotoxicity against human HepG2 cells; assay type: cell-based
[2] = test system: beta5 subunit of human 20S immunoproteasome; test: Selectivity ratio of IC50 for human beta5 20S immunoproteasome to IC50 for Plasmodium falciparum 20S proteasome beta5 subunit; assay type: toxicity; details: read-out: Ratio IC50
[3] = molecular target: T1, Proteasome Macropain subunit MB1 (Homo sapiens, UniProt P28074); test: Inhibition of human beta5 20S constitutive proteasome using suc-LLVY-AMC as substrate; details: for inhibition (INH): human
T1 sequence (P28074 whole entry): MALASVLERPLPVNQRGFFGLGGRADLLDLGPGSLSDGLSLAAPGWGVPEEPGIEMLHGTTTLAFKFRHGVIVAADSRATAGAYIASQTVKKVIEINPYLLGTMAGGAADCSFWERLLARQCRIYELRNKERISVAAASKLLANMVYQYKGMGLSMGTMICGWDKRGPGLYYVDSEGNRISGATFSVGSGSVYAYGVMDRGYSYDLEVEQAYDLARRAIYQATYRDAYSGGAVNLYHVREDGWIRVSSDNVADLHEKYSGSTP

[4] = molecular target: T2, Proteasome subunit beta type-8 (Homo sapiens, UniProt P28062); test: Inhibition of human beta5 20S immunoproteasome using Ac-ANW-AMC as substrate; details: for inhibition (INH): human
T2 sequence (P28062 whole entry): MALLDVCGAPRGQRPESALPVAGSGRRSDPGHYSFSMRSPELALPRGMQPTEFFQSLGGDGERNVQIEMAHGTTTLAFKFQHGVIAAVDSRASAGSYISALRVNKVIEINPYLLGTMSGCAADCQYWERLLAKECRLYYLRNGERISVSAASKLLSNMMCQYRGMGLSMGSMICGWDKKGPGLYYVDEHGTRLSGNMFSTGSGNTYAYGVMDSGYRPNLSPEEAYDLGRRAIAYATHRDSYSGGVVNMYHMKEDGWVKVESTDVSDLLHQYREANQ

[5] = test system: beta5 subunit of human 20S constitutive proteasome; test: Selectivity ratio of IC50 for human beta5 20S constitutive proteasome to IC50 for Plasmodium falciparum 20S proteasome beta5 subunit; assay type: toxicity; details: read-out: Ratio IC50
[6] = test system: Karpas-1106P; test: Cytotoxicity against human KARPAS1106P cells; assay type: cell-based
[7] = test system: Plasmodium falciparum; test: Antimalarial activity against erythrocytic stage of Plasmodium falciparum 3D7 measured after 72 hrs by SYBR green dye based fluorescence assay; assay type: functional, organism-based; details: 3D7, 72 h
[8] = (§1) Inhibition of Plasmodium falciparum 20S proteasome beta5 subunit using suc-LLVY-AMC as substrate in presence of beta2 inhibitor WLW-VS
[9] = test system: Plasmodium falciparum; test: as §1
[10] = Permeability of the compound at pH 7.4 by PAMPA; assay type: ADME; details: read-out: permeability
[11] = test system: Plasmodium falciparum; test: Antimalarial activity against erythrocytic stage of Plasmodium falciparum Dd2 measured after 72 hrs by SYBR green dye based fluorescence assay; assay type: functional, organism-based; details: Dd2, 72 h
[12] = test system: Plasmodium falciparum; test: Resistance index, ratio of EC50 for erythrocytic stage of Plasmodium falciparum Dd2 harboring 20S beta6 proteasome A117D mutant to EC50 erythrocytic stage of Plasmodium falciparum Dd2
[13] = Clearance in human liver microsomes; assay type: ADME, Microsome; details: read-out: CLH
[14] = Clearance in mouse liver microsomes; assay type: ADME, Microsome; details: read-out: CLH
[15] = test system: Plasmodium falciparum; test: Antimalarial activity against erythrocytic stage of Plasmodium falciparum Dd2 measured after 72 hrs in presence of 20S beta2 inhibitor WLW-VS by SYBR green dye based fluorescence assay; assay type: functional, organism-based
[16] = Clearance in rat liver microsomes; assay type: ADME, Microsome; details: read-out: CLH
[17] = test system: Plasmodium falciparum; test: Antimalarial activity against erythrocytic stage of Plasmodium falciparum Dd2 harboring 20S beta5 proteasome A49S mutant measured after 72 hrs by SYBR green dye based fluorescence assay; assay type: functional, organism-based; details: Dd2, 72 h
[18] = test system: Plasmodium falciparum; test: Resistance index, ratio of EC50 for erythrocytic stage of Plasmodium falciparum Dd2 harboring 20S beta5 proteasome A49S mutant to EC50 erythrocytic stage of Plasmodium falciparum Dd2; assay type: functional
[19] = test system: Plasmodium falciparum; test: Inhibition of MV151 binding to Plasmodium falciparum 20S proteasome beta5 subunit A49S mutant at 1.2 to 33.3 uM preincubated for 1 hr followed by MV151 addition and measured after 1 hr by fluorescence assay
[20] = test system: Plasmodium falciparum; test: Antimalarial activity against erythrocytic stage of Plasmodium falciparum Dd2 harboring 20S beta2 proteasome A117D mutant measured after 72 hrs by SYBR green dye based fluorescence assay; assay type: functional, organism-based; details: Dd2, 72 h
[21] = test system: Plasmodium falciparum; test: microbe, parasite or virus in culture; details: 72 h
[22] = test system: Plasmodium falciparum; test: Inhibition of MV151 binding to Plasmodium falciparum 20S proteasome beta5 subunit preincubated for 1 hr followed by MV151 addition and measured after 1 hr by fluorescence assay
[23] = test system: Plasmodium falciparum; test: Inhibition of MV151 binding to Plasmodium falciparum 20S proteasome beta1 subunit preincubated for 1 hr followed by MV151 addition and measured after 1 hr by fluorescence assay
[24] = test system: Plasmodium falciparum; test: Inhibition of MV151 binding to Plasmodium falciparum 20S proteasome beta2 subunit preincubated for 1 hr followed by MV151 addition and measured after 1 hr by fluorescence assay

Structure (SMILES): Cc1ccc(S(=O)(=O)N[C@@H](CC(=O)NC(C)(C)C)C(=O)NCCNC(=O)c2cc(C)ccc2F)cc1
EC50 [1]: > 11000 nM | selectivity ratio [2]: 19 | IC50 [3]: 12000 nM | inhibition (INH) [3]: Dose-dependent effect | IC50 [4]: 384 nM | inhibition (INH) [4]: Dose-dependent effect | selectivity ratio [5]: 581 | EC50 [6]: > 11100 nM | EC50 [7]: 13.9 nM | IC50 [8]: 20.7 nM | inhibition [9]: Dose-dependent effect

Structure (SMILES): Cc1ccc(S(=O)(=O)N[C@@H](CC(=O)NC(C)(C)C)C(=O)NCCNC(=O)c2ccccc2)cc1
EC50 [1]: > 11000 nM | selectivity ratio [2]: 4.8 | Papp [10]: 13.7 ×10⁻⁶ cm/s | EC50 [11]: 7.7 nM | Ratio EC50 [12]: 14 | microsomal CLint [13]: 122 µL/min/mg | microsomal CLint [14]: 64 µL/min/mg | Activity [15]: Active | IC50 [3]: 1410 nM | IC50 [4]: 100 nM | selectivity ratio [5]: 68 | EC50 [6]: > 11100 nM | microsomal CLint [16]: 66 µL/min/mg | EC50 [17]: 135 nM | Ratio EC50 [18]: 17 | EC50 [7]: 8.4 nM | inhibition [19]: Active | EC50 [20]: 111 nM | IC50 [8]: 20.8 nM

Structure (SMILES): C#Cc1cccc(C(=O)NCCNC(=O)[C@H](CC(=O)NC(C)(C)C)NS(=O)(=O)c2ccc(C)cc2)c1
EC50 [1]: > 11000 nM | selectivity ratio [2]: 24 | Papp [10]: 20.3 ×10⁻⁶ cm/s | EC50 [11]: 3.3 nM | Ratio EC50 [12]: 19 | microsomal CLint [13]: 61 µL/min/mg | microsomal CLint [14]: 97 µL/min/mg | IC50 [3]: 430 nM | inhibition (INH) [3]: Dose-dependent effect | IC50 [4]: 112 nM | inhibition (INH) [4]: Dose-dependent effect | selectivity ratio [5]: 91 | EC50 [6]: > 11100 nM | microsomal CLint [16]: 61 µL/min/mg | EC50 [21]: 7.1 nM | inhibition [22]: Dose-dependent effect | EC50 [17]: 502 nM | Ratio EC50 [18]: 152 | EC50 [7]: 3.1 nM | EC50 [20]: 61.9 nM | IC50 [8]: 4.7 nM | inhibition [9]: Dose-dependent effect

Structure (SMILES): COc1cccc(C(=O)NCCNC(=O)[C@H](CC(=O)NC(C)(C)C)NS(=O)(=O)c2ccc(C)cc2)c1
EC50 [1]: > 11000 nM | selectivity ratio [2]: 4.3 | Papp [10]: 15.9 ×10⁻⁶ cm/s | EC50 [11]: 2.5 nM | Ratio EC50 [12]: 25 | microsomal CLint [13]: 202 µL/min/mg | microsomal CLint [14]: 142 µL/min/mg | IC50 [3]: 506 nM | IC50 [4]: 38 nM | selectivity ratio [5]: 57 | EC50 [6]: > 11100 nM | microsomal CLint [16]: 115 µL/min/mg | EC50 [17]: 252 nM | Ratio EC50 [18]: 101 | EC50 [7]: 2.3 nM | EC50 [20]: 63.4 nM | IC50 [8]: 8.9 nM

inhibition [23]: inactive | inhibition [24]: inactive | IC50 [3]: 110 nM | IC50 [4]: 4 nM | EC50 [7]: 1.6 nM
Structure (SMILES): Cc1ccc(S(=O)(=O)N[C@@H](CC(=O)NC(C)(C)C)C(=O)NCCNC(=O)c2cc(-c3ccccc3F)ccc2F)cc1

Structure (SMILES): Cc1ccc(S(=O)(=O)N[C@@H](CC(=O)NC(C)(C)C)C(=O)NCCNC(=O)c2ccccc2F)cc1
EC50 [1]: > 11000 nM | inhibition [23]: inactive | inhibition [24]: inactive | selectivity ratio [2]: 5.3 | Papp [10]: 10.5 ×10⁻⁶ cm/s | microsomal CLint [13]: 141 µL/min/mg | microsomal CLint [14]: 141 µL/min/mg | IC50 [3]: 1140 nM | IC50 [4]: 169 nM | selectivity ratio [5]: 36 | EC50 [6]: > 11100 nM | microsomal CLint [16]: 124 µL/min/mg | EC50 [7]: 7.5 nM | IC50 [8]: 32 nM
